Results as given in patent publication US11492347B2 (ENYO PHARMA, priority 2018, dated 2022).
Counter-ions that a name gives are not always drawn.

Each compound was assayed on H1N1 (influenza A/New Caledonia/20/99) (assay: microbe, parasite or virus in culture). Settings: H1N1, A549, 48 h.
Assay type: cell-based

In order of rising IC50:
1. CN(CC1CCOCC1)c1ccc(C(=O)Nc2sc3c(c2C(=O)O)CC(C)(C)CC3(C)C)cc1 [Compound #152, 5,5,7,7-Tetramethyl-2-[[4-[methyl(tetrahydropyran-4-ylmethyl)amino]benzoyl]amino]-4,6-dihydrobenzothiophene-3-carboxylicacid]  0.5 nM
2. CCOC1CN(c2ccc(C(=O)Nc3sc4c(c3C(=O)O)CC(C)(C)CC4(C)C)cc2)C1 [Compound #156, 2-[[4-(3-Ethoxyazetidin-1-yl)benzoyl]amino]-5,5,7,7-tetramethyl-4,6-dihydrobenzothiophene-3-carboxylic acid]  2 nM
3. CC1(C)Cc2c(sc(NC(=O)c3ccc(NCC4CCCOC4)cc3)c2C(=O)O)C(C)(C)C1 (stereo not shown) [Compound #141, 5,5,7,7-Tetramethyl-2-[[4-(tetrahydropyran-3-ylmethylamino)benzoyl]amino]-4,6-dihydrobenzothiophene-3-carboxylic acid]  3.3 nM
4. COCCN(C)c1ccc(C(=O)Nc2sc3c(c2C(=O)O)CC(C)(C)CC3(C)C)cc1 [Compound #150, 2-[[4-[2-Methoxyethyl(methyl)amino]benzoyl]amino]-5,5,7,7-tetramethyl-4,6-dihydrobenzothiophene-3-carboxylic acid]  3.9 nM
5. CC1CC(C)(C)Cc2sc(NC(=O)c3ccc(NCC4CCOCC4)cc3)c(C(=O)O)c21 (stereo not shown) [Compound #157, 4,6,6-Trimethyl-2-[[4-(tetrahydropyran-4-ylmethylamino)benzoyl]amino]-5,7-dihydro-4H-benzothiophene-3-carboxylic acid]  5 nM
6. COC1CCN(c2ccc(C(=O)Nc3sc4c(c3C(=O)O)CC(C)(C)CC4(C)C)cc2)CC1 [Compound #155, 2-[[4-(4-Methoxy-1-piperidyl)benzoyl]amino]-5,5,7,7-tetramethyl-4,6-dihydrobenzothiophene-3-carboxylic acid]  10 nM
7. COC1CC(N(C)c2ccc(C(=O)Nc3sc4c(c3C(=O)O)CC(C)(C)CC4(C)C)cc2)C1 (stereo not shown) [#165, 2-[[4-[(3-Methoxycyclobutyl)-methyl-amino]benzoyl]amino]-5,5,7,7-tetramethyl-4,6-dihydrobenzothiophene-3-carboxylic acid]  11.7 nM
8. CC1(C)Cc2c(sc(NC(=O)c3ccc(NC4CCOC4)cc3)c2C(=O)O)C(C)(C)C1 (stereo not shown) [Compound #61, 5,5,7,7-Tetramethyl-2-[[4-(tetrahydrofuran-3-ylamino)benzoyl]amino]-4,6-dihydrobenzothiophene-3-carboxylic acid]  27.9 nM
9. COCCNc1ccc(C(=O)Nc2sc3c(c2C(=O)O)C(C)CC(C)(C)C3)cc1 (stereo not shown) [Compound #145, 2-1-[[4-(2-Methoxyethylamino)benzoyl]amino]-4,6,6-trimethyl-5,7-dihydro-411-benzothiophene-3-carboxylic acid]  32 nM
10. CC1(C)Cc2c(sc(NC(=O)c3ccc(C4CCOCC4)cc3)c2C(=O)O)C(C)(C)C1 [#174, 5,5,7,7-Tetramethyl-2-[(4-tetrahydropyran-4-ylbenzoyl)amino]-4,6-dihydrobenzothiophene-3-carboxylic acid]  39 nM
11. CC1(C)Cc2c(sc(NC(=O)c3ccc(OCC4CCOCC4)cc3)c2C(=O)O)C(C)(C)C1 [#162, 5,5,7,7-Tetramethyl-2-[[4-(tetrahydropyran-4-ylmethoxy)benzoyl]amino]-4,6-dihydrobenzothiophene-3-carboxylic acid]  39 nM
12. COc1ccc(C(=O)Nc2sc3c(c2C(=O)O)CC(C)(C)CC3)cc1OC [Compound #27, 2-[(3,4-Dimethoxybenzoyl)amino]-5,5-dimethyl-6,7-dihydro-4H-benzothiophene-3-carboxylic acid]  40 nM
13. CC(=O)N1CCC(Nc2ccc(C(=O)Nc3sc4c(c3C(=O)O)CC(C)(C)CC4(C)C)cc2)CC1 [Compound #63, 2-[[4-[(1-Acetyl-4-piperidyl)amino]benzoyl]amino]-5,5,7,7-tetramethyl-4,6-dihydrobenzothiophene-3-carboxylic acid]  80 nM
14. COC1CN(c2ccc(C(=O)Nc3sc4c(c3C(=O)O)C(C)(C)CC4)cc2)C1 [Compound #146, 2-[[4-(3-Methoxyazetidin-1-yl)benzoyl]amino]-4,4-dimethyl-5,6-dihydrocyclopenta[b]thiophene-3-carboxylicacid]  83 nM
15. CC1(C)CCc2sc(NC(=O)c3ccccc3)c(C(=O)O)c2C1 [Compound #26, 2-Benzamido-5,5-dimethyl-6,7-dihydro-4H-benzothiophene-3-carboxylic acid]  84.9 nM
16. COCCNc1ccc(C(=O)Nc2sc3c(c2C(=O)O)C(C)(C)CC3)cc1 [Compound #64, 2-[[4-(2-Methoxyethylamino)benzoyl]amino]-4,4-dimethyl-5,6-dihydrocyclopenta[b]thiophene-3-carboxylicacid]  90 nM
17. CC1(C)CCc2sc(NC(=O)c3cc[nH]n3)c(C(=O)O)c2C1 [#225, 5,5-Dimethyl-2-(1H-pyrazole-3-carbonylamino)-6,7-dihydro-4H-benzothiophene-3-carboxylic acid]  110 nM
18. CC1(C)Cc2c(sc(NC(=O)c3ccc(N4CCC(O)CC4)cc3)c2C(=O)O)C(C)(C)C1 [Compound #34, 2-[[4-(4-Hydroxy-1-piperidyl)benzoyl]amino]-5,5,7,7-tetramethyl-4,6-dihydrobenzothiophene-3-carboxylic acid]  113 nM
19. CC1(C)CCc2c(sc(NC(=O)c3ccc(OC(F)(F)F)cc3)c2C(=O)O)C1 [Compound #24, 6,6-Dimethyl-2-[[4-(trifluoromethoxy)benzoyl]amino]-5,7-dihydro-4H-benzothiophene-3-carboxylic acid]  160 nM
20. O=C(Nc1sc2c(c1C(=O)O)CCC1(CC1)C2)c1ccc(F)cc1 [Compound #32, 2-[(4-Fluorobenzoyl)amino]spiro[5,7-dihydro-4H-benzothiophene-6,1′-cyclopropane]-3-carboxylic acid]  160 nM
21. CC1(C)CCc2sc(NC(=O)c3ccc(N4CCOCC4)nc3)c(C(=O)O)c2C1 [Compound #65, 5,5-Dimethyl-2-[(6-morpholinopyridine-3-carbonyl)amino]-6,7-dihydro-4H-benzothiophene-3-carboxylic acid]  200 nM
22. CC1(C)CCc2sc(NC(=O)c3ccc(OC(F)(F)F)cc3)c(C(=O)O)c21 [Compound #40, 4,4-Dimethyl-2-[[4-(trifluoromethoxy)benzoyl]amino]-5,6-dihydrocyclopenta[b]thiophene-3-carboxylic acid]  230 nM
23. CC1(C)CCc2sc(NC(=O)c3ccc(OC(F)F)cc3)c(C(=O)O)c21 [Compound #39, 2-[[4-(Difluoromethoxy)benzoyl]amino]-4,4-dimethyl-5,6-dihydrocyclopenta[b]thiophene-3-carboxylic acid]  277 nM
24. CC1(C)CCc2sc(NC(=O)c3ccc(Br)cc3)c(C(=O)O)c21 [Compound #158, 2-[(4-Bromobenzoyl)amino]-4,4-dimethyl-5,6-dihydro cyclopenta[b]thiophene-3-carboxylic acid]  320 nM
25. CC1(C)Cc2c(sc(NC(=O)c3ccc(NC4CCNCC4)cc3)c2C(=O)O)C(C)(C)C1 [Compound #131, hydrochloride salt]  350 nM
26. CC1(C)CCc2c(sc(NC(=O)c3cccc(N4CCOCC4)n3)c2C(=O)O)C1 [#219, 6,6-Dimethyl-2-[(6-morpholinopyridine-2-carbonyl)amino]-5,7-dihydro-4H-benzothiophene-3-carboxylic acid]  510 nM
27. CC1(C)CCc2sc(NC(=O)c3cccc(N4CCOCC4)n3)c(C(=O)O)c2C1 [#213, 5,5-Dimethyl-2-[(6-morpholinopyridine-2-carbonyl)amino]-6,7-dihydro-4H-benzothiophene-3-carboxylic acid]  610 nM
28. COc1ccc(C(=O)Nc2sc3c(c2C(=O)O)CCC(C)(C)C3)nc1OC [Compound #94, 2-[(5,6-Dimethoxypyridine-2-carbonyl)amino]-6,6-dimethyl-5,7-dihydro-4H-benzothiophene-3-carboxylic acid]  660 nM
29. CC1(C)CCc2c(sc(NC(=O)c3cnc(N4CCOCC4)nc3)c2C(=O)O)C1 [#208, 6,6-Dimethyl-2-[(2-morpholinopyrimidine-5-carbonyl)amino]-5,7-dihydro-4H-benzothiophene-3-carboxylic acid]  740 nM
30. CC(=O)N1CC(Nc2ccc(C(=O)Nc3sc4c(c3C(=O)O)CC(C)(C)CC4(C)C)cc2)C1 [Compound #133, 2-[[4-[(1-Acetylazetidin-3-yl)amino]benzoyl]amino]-5,5,7,7-tetramethyl-4,6-dihydrobenzothiophene-3-carboxylic acid]  750 nM
31. CC1(C)CCc2c(sc(NC(=O)c3ccccn3)c2C(=O)O)C1 [Compound #96, 6,6-Dimethyl-2-(pyridine-2-carbonylamino)-5,7-dihydro-4H-benzothiophene-3-carboxylic acid]  800 nM
32. CC1(C)CCc2sc(NC(=O)c3cccc(OC(F)F)c3)c(C(=O)O)c21 [Compound #98, 2-[[3-(Difluoromethoxy)benzoyl]amino]-4,4-dimethyl-5,6-dihydrocyclopenta[b]thiophene-3-carboxylic acid]  800 nM
33. Cn1cc(C(=O)Nc2sc3c(c2C(=O)O)CCC(C)(C)C3)cn1 [#212, 6,6-Dimethyl-2-[(1-methylpyrazole-4-carbonyl)amino]-5,7-dihydro-4H-benzothiophene-3-carboxylic acid]  900 nM
34. Cn1cc(C(=O)Nc2sc3c(c2C(=O)O)CC(C)(C)CC3)cn1 [#202, 5,5-Dimethyl-2-[(1-methylpyrazole-4-carbonyl)amino]-6,7-dihydro-4H-benzothiophene-3-carboxylic acid]  900 nM
35. Cc1ccccc1C(=O)Nc1sc2c(c1C(=O)O)CCC(C#N)(c1ccccc1)C2 (stereo not shown) [Compound #105, 6-Cyano-2-[(2-methylbenzoyl)amino]-6-phenyl-5,7-dihydro-4H-benzothiophene-3-carboxylic acid]  1080 nM
36. O=C(Nc1sc2c(c1C(=O)O)C1CCC2C1)c1ccccc1 (stereo not shown) [Compound #28, 2-Benzamido-4,5,6,7-tetrahydro-4,7-methanobenzo[b]thiophene-3-carboxylic acid]  1270 nM
37. O=C(Nc1sc2c(c1C(=O)O)CCC(F)(F)C2)c1ccccc1 [Compound #117, 2-Benzamido-6,6-difluoro-5,7-dihydro-4H-benzothiophene-3-carboxylic acid]  1900 nM
